The record followed here is US20230203043A1, “NOVEL IMIDAZOPYRAZINE DERIVATIVES” (Hoffmann-La Roche Inc., priority 2020, published 2023).

Usually IC90 stands for the concentration at which the effect reaches the 90% level.

Where a name gives a salt, the structure may show the parent alone.

For one assay, the system named is Acinetobacter baumannii ATCC17961. Kind of assay: Antimicrobial susceptibility testing: 90% growth inhibitory concentration (IC90) determination in Iso-Sensitest broth, OD600 growth. It is filed as cell-based. The note with it: Acinetobacter baumannii, ATCC17961, 16 h, read-out: A. baumannii ATCC 17961 IC90 (uM), strain ATCC 17961, OD600 growth over 16 h. An outline of the steps:
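Twofold compound dilutions (e.g. 50 to 0.097 μM final) in Iso-Sensitest broth with ~5×10^(5) CFU/ml, 35±2 °C. OD600 read every 20 min over 16 h; IC90 from growth inhibition during logarithmic phase.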
In the case of `Cc1cc(Nc2nccn3c(-c4cn(CC#N)nc4C(F)(F)F)cnc23)cc(F)c1C(=O)N1CCN(C(=O)CN)CC1` [Example 695, 2-(4-(8-((3-fluoro-4-(4-glycylpiperazine-1-carbonyl)-5-methylphenyl)amino)imidazo[1,2-a]pyrazin-3-yl)-3-(trifluoromethyl)-1H-pyrazol-1-yl) acetonitrile formate], the IC90 stood at 0.362 µM.

Consider `O=C(CN1CCN(C(=O)c2ccc(Nc3nccn4c(-c5cn(CC(F)F)nc5C(F)(F)F)cnc34)cc2Cl)CC1)N1CCNCC1` [Example 608, 2-(4-(2-chloro-4-((3-(1-(2,2-difluoroethyl)-3-(trifluoromethyl)-1H-pyrazol-4-yl)imidazo[1,2-a]pyrazin-8-yl)amino)benzoyl)piperazin-1-yl)-1-(piperazin-1-yl) ethan-1-one formate], for which the IC90 came to 0.936 µM.

As for `N[C@H]1CN[C@H](C(=O)N2CCN(C(=O)c3ccc(Nc4nccn5c(-c6c[nH]nc6C(F)(F)F)cnc45)cc3Cl)CC2)C1` [Example 200, [4-[(2S,4R)-4-aminopyrrolidine-2-carbonyl]piperazin-1-yl]-[2-chloro-4-[[3-[3-(trifluoromethyl)-1H-pyrazol-4-yl]imidazo[1,2-a]pyrazin-8-yl]amino]phenyl] methanone formate], the IC90 is 0.372 µM.

In the case of `CCc1cc(Nc2nccn3c(-c4cn(CC(F)F)nc4C(F)(F)F)cnc23)ccc1C(=O)NCCNC(=O)CN` [Example 611, N-(2-(2-aminoacetamido)ethyl)-4-((3-(1-(2,2-difluoroethyl)-3-(trifluoromethyl)-1H-pyrazol-4-yl)imidazo[1,2-a]pyrazin-8-yl)amino)-2-ethylbenzamide formate], the IC90 is 0.11 µM.

Take `Cc1cc(Nc2nccn3c(-c4cn(CC#N)nc4C(F)(F)F)cnc23)ccc1C(=O)NCC(=O)NC1CC(N)C1` (centres unmarked) [Example 749, N-[2-[(3-aminocyclobutyl)amino]-2-oxo-ethyl]-4-[[3-[1-(cyanomethyl)-3-(trifluoromethyl)pyrazol-4-yl]imidazo[1,2-a]pyrazin-8-yl]amino]-2-methyl-benzamide formate]: the IC90 amounted to 0.619 µM.

Take `Cc1cc(Nc2nccn3c(-c4c[nH]nc4C(F)(F)F)cnc23)ccc1C(=O)NCCCNC(=O)[C@@H]1C[C@@H](O)CN1` [Example 442, formic acid; (2S,4R)-4-hydroxy-N-[3-[[2-methyl-4-[[3-[3-(trifluoromethyl)-1H-pyrazol-4-yl]imidazo[1,2-a]pyrazin-8-yl]amino]benzoyl]amino]propyl]pyrrolidine-2-carboxamide]: the IC90 amounted to 0.622 µM.

As for `CCc1cc(Nc2nccn3c(-c4cn(CC(F)F)nc4C(F)(F)F)cnc23)ccc1C(=O)NCC(=O)NC1C2CNCC21` (centres unmarked) [Example 529, N-[2-(3-azabicyclo[3.1.0]hexan-6-ylamino)-2-oxo-ethyl]-4-[[3-[1-(2,2-difluoroethyl)-3-(trifluoromethyl)pyrazol-4-yl]imidazo[1,2-a]pyrazin-8-yl]amino]-2-ethyl-benzamide formate], the IC90 amounted to 0.248 µM.

On to `CCc1cc(Nc2nccn3c(-c4cn(C5CCC5)nc4C(F)(F)F)cnc23)ccc1C(=O)NCC1CC1N` (centres unmarked) [Example 671, N-((2-aminocyclopropyl)methyl)-4-((3-(1-cyclobutyl-3-(trifluoromethyl)-1H-pyrazol-4-yl)imidazo[1,2-a]pyrazin-8-yl)amino)-2-ethylbenzamide formate], for which the IC90 worked out at 0.309 µM.

For the molecule `CCc1cc(Nc2nccn3c(-c4c[nH]nc4C(F)(F)F)cnc23)ccc1C(=O)NCCNC(=O)[C@@H]1C[C@@](O)(CC)CN1` [Example 435, (2S,4S)-4-ethyl-N-[2-[[2-ethyl-4-[[3-[3-(trifluoromethyl)-1H-pyrazol-4-yl]imidazo[1,2-a]pyrazin-8-yl]amino]benzoyl]amino]ethyl]-4-hydroxypyrrolidine-2-carboxamide formate], the IC90 was 2.69 µM.

Take `CCc1cc(Nc2nccn3c(-c4c[nH]nc4C(F)(F)F)cnc23)ccc1C(=O)NCCCNC(=O)[C@@H]1CC[C@H](N)C1` [Example 534, N-(3-((1R,3S)-3-aminocyclopentane-1-carboxamido)propyl)-2-ethyl-4-((3-(3-(trifluoromethyl)-1H-pyrazol-4-yl)imidazo[1,2-a]pyrazin-8-yl)amino)benzamide formate]: the concentration for an effect of 90% (IC90) came out at 0.251 µM.

The same assay, now with this note: Acinetobacter baumannii, ATCC17961, 16 h, strain ATCC 17961, OD600 growth over 16 h, read-out: A. baumannii ATCC 17961 IC90.
Turning to `NCCOCCNC(=O)c1ccc(Nc2nccn3c(-c4cn(CC5CC5)nc4C(F)(F)F)cnc23)cc1F` [Example 811, N-(2-(2-aminoethoxy)ethyl)-4-((3-(1-(cyclopropyl-methyl)-3-(trifluoromethyl)-1H-pyrazol-4-yl)imidazo[1,2-a]pyrazin-8-yl)amino)-2-fluorobenzamide hydrochloride], the IC90 stood at 0.23 µM.

Consider `Cc1cc(Nc2nccn3c(-c4cn(CC#N)nc4C(F)(F)F)cnc23)cc(F)c1C(=O)N1CCN(C(=O)[C@H]2CC[C@H](O)N2)CC1` [Example 715, 2-(4-(8-((3-fluoro-4-(4-((2R,5S)-5-hydroxypyrrolidine-2-carbonyl)piperazine-1-carbonyl)-5-methylphenyl)amino)imidazo[1,2-a]pyrazin-3-yl)-3-(trifluoromethyl)-1H-pyrazol-1-yl) acetonitrile], for which the IC90 was determined as 0.422 µM.

For the molecule `NCCNC(=O)c1ccc(Nc2nccn3c(-c4c[nH]nc4C(F)(F)F)cnc23)cc1Cl` [Example 363, N-(2-aminoethyl)-2-chloro-4-[[3-[3-(trifluoromethyl)-1H-pyrazol-4-yl]imidazo[1,2-a]pyrazin-8-yl]amino]benzamide], the IC90 stood at 0.738 µM.

In the case of `N#CCn1cc(-c2cnc3c(Nc4ccc(C(=O)N5CCN(C(=O)[C@H]6[C@@H]7CNC[C@@H]76)CC5)c(Cl)c4)nccn23)c(C(F)(F)F)n1` [Example 481, 2-(4-(8-((4-(4-((1R,5S,6r)-3-azabicyclo[3.1.0]hexane-6-carbonyl)piperazine-1-carbonyl)-3-chlorophenyl)amino)imidazo[1,2-a]pyrazin-3-yl)-3-(trifluoromethyl)-1H-pyrazol-1-yl)acetonitrile formate], the IC90 came to 0.117 µM.

Regarding `O=C(NC1CCCNC1)c1ccc(Nc2nccn3c(-c4c[nH]nc4C(F)(F)F)cnc23)cc1Cl` (centres unmarked) [Example 414, 2-chloro-N-piperidin-3-yl-4-[[3-[3-(trifluoromethyl)-1H-pyrazol-4-yl]imidazo[1,2-a]pyrazin-8-yl]amino]benzamide], the IC90 stood at 4.04 µM.

For `CCc1cc(Nc2nccn3c(-c4cn(CC(F)F)nc4C(F)(F)F)cnc23)ccc1C(=O)N1CCN(C(=O)C2CCNCC2)CC1` [Example 70, [4-[[3-[1-(2,2-difluoroethyl)-3-(trifluoromethyl)pyrazol-4-yl]imidazo[1,2-a]pyrazin-8-yl]amino]-2-ethylphenyl]-[4-(piperidine-4-carbonyl)piperazin-1-yl]methanone], the IC90 is 0.489 µM.

For the molecule `N#CCn1cc(-c2cnc3c(Nc4ccc(C(=O)NCCNCC(=O)N[C@@H]5CCNC5)c(Cl)c4)nccn23)c(C(F)(F)F)n1` [Example 818, (R)-2-chloro-4-((3-(1-(cyanomethyl)-3-(trifluoromethyl)-1H-pyrazol-4-yl)imidazo[1,2-a]pyrazin-8-yl)amino)-N-(2-((2-oxo-2-(pyrrolidin-3-ylamino)ethyl)amino)ethyl) benzamide formate], the IC90 came to 0.15 µM.
